The source made the active and inactive calls. No rule for the calls is given here.
Test system: CCRIS mutagenicity, Ames/micronucleus/aberration tests
Experiment: CCRIS mutagenicity studies
[1] = Test System: AMES SALMONELLA TYPHIMURIUM, Strain/Indicator: TA1538, Metabolic Activation: NONE, Method: STANDARD PLATE
[2] = Test System: AMES SALMONELLA TYPHIMURIUM, Strain/Indicator: TA98, Metabolic Activation: NONE, Method: PREINCUBATION
[3] = Test System: AMES SALMONELLA TYPHIMURIUM, Strain/Indicator: TA100, Metabolic Activation: NONE, Method: PREINCUBATION
[4] = Test System: AMES SALMONELLA TYPHIMURIUM, Strain/Indicator: TA100, Metabolic Activation: NONE, Method: STANDARD PLATE
[5] = Test System: AMES SALMONELLA TYPHIMURIUM, Strain/Indicator: TA1535, Metabolic Activation: NONE, Method: STANDARD PLATE

Compound: CCNc1cc2oc(=O)cc(C)c2cc1C
- mutagenic call [1]: inactive; negative
- mutagenic call (Test System: AMES SALMONELLA TYPHIMURIUM, Strain/Indicator: TA1538, Metabolic Activation: RAT, LIVER, S-9, AROCLOR 1254, Method: STANDARD PLATE): inactive; negative

Compound: C=CC(=O)OCCC
- mutagenic call (Test System: MOUSE LYMPHOMA, Strain/Indicator: L5178Y (TK+/TK-), Metabolic Activation: NONE, Method: SUSPENSION/PLATE): active; positive. reevaluation of results: positive
- mutagenic call (Test System: MOUSE LYMPHOMA, Strain/Indicator: L5178Y (TK+/TK-), Metabolic Activation: RAT, LIVER, S-9, AROCLOR 1254, Method: SUSPENSION/PLATE): active; positive. reevaluation of results: positive

Compound: Cc1c(N)nc(C(CC(N)=O)NCC(N)C(N)=O)nc1C(=O)NC(C(=O)NC(C)C(O)C(C)C(=O)NC(C(=O)NCCc1nc(-c2nc(C(=O)NCCC[S+](C)C)cs2)cs1)C(C)O)C(O[C@@H]1O[C@@H](CO)[C@@H](O)[C@H](O)[C@@H]1O[C@H]1O[C@H](CO)[C@@H](O)[C@H](OC(N)=O)[C@@H]1O)c1cnc[nH]1 (stereo partly specified)
- mutagenic call (End Point: IN VITRO MICRONUCLEUS, Test System: CHO CELLS, Metabolic Activation: RAT, LIVER, S-9, AROCLOR 1254): active; positive
- mutagenic call (End Point: In vitro micronucleus, Test System: Human lymphocytes from 200 volunteers (128 women, 72 men), Metabolic Activation: None): inactive; positive for gstt1-null and xd polymorphisms and spontaneous and bleomycin-induc
- mutagenic call [2]: inactive; negative
- mutagenic call (Test System: AMES SALMONELLA TYPHIMURIUM, Strain/Indicator: TA98, Metabolic Activation: S-9, Method: PREINCUBATION): inactive; negative
- mutagenic call [3]: inactive; negative
- mutagenic call (Test System: AMES SALMONELLA TYPHIMURIUM, Strain/Indicator: TA100, Metabolic Activation: S-9, Method: PREINCUBATION): inactive; negative
- mutagenic call (Test System: AMES SALMONELLA TYPHIMURIUM, Strain/Indicator: TA102, Metabolic Activation: NONE, Method: STANDARD PLATE): active; positive
- mutagenic call (Test System: AMES SALMONELLA TYPHIMURIUM, Strain/Indicator: TA2638A, Metabolic Activation: NONE, Method: STANDARD PLATE): inactive; negative

Compound: O=c1c2cccc3ccc4cccc1c4c32
- mutagenic call (Test System: AMES SALMONELLA TYPHIMURIUM, Strain/Indicator: TA100, Metabolic Activation: RAT, LIVER, S-9, AROCLOR 1254, Method: STANDARD PLATE): active; positive

Compound: Cc1cccc(NO)c1C
- mutagenic call [3]: active; positive
- mutagenic call (Test System: AMES SALMONELLA TYPHIMURIUM, Strain/Indicator: TA100, Metabolic Activation: RAT, LIVER, S-9, PCB, Method: PREINCUBATION): active; positive

Compound: CS(=O)(=O)Nc1ccc(Nc2c3ccccc3nc3ccc(N=[N+]=[N-])cc23)cc1
- mutagenic call (Test System: AMES SALMONELLA TYPHIMURIUM, Strain/Indicator: TA1537, Metabolic Activation: NONE, Method: STANDARD PLATE): active; positive

Compound: NNC(=O)c1ccncc1
- mutagenic call (Test System: AMES SALMONELLA TYPHIMURIUM, Strain/Indicator: G46, Metabolic Activation: HAMSTER, LIVER, HOMOGENATE (HEAT-INACTIVATED), Method: PREINCUBATION): inactive; negative
- mutagenic call (Test System: AMES SALMONELLA TYPHIMURIUM, Strain/Indicator: G46, Metabolic Activation: HAMSTER, LIVER, HOMOGENATE, Method: PREINCUBATION): active; positive
- mutagenic call (Test System: AMES SALMONELLA TYPHIMURIUM, Strain/Indicator: G46, Metabolic Activation: MOUSE, LIVER, HOMOGENATE, Method: PREINCUBATION): active; positive
- mutagenic call (Test System: AMES SALMONELLA TYPHIMURIUM, Strain/Indicator: G46, Metabolic Activation: NONE, Method: STANDARD PLATE): inactive; negative
- mutagenic call (Test System: AMES SALMONELLA TYPHIMURIUM, Strain/Indicator: G46, Metabolic Activation: RAT, LIVER, HOMOGENATE, Method: PREINCUBATION): active; positive
- mutagenic call (Test System: AMES SALMONELLA TYPHIMURIUM, Strain/Indicator: TA92, Metabolic Activation: NONE, Method: STANDARD PLATE): active; positive
- mutagenic call (Test System: AMES SALMONELLA TYPHIMURIUM, Strain/Indicator: TA100, Metabolic Activation: MOUSE, LIVER, S-9, Method: STANDARD PLATE): inactive; negative
- mutagenic call [4]: active; positive
- mutagenic call (Test System: AMES SALMONELLA TYPHIMURIUM, Strain/Indicator: TA102, Metabolic Activation: RAT, LIVER, S-9, AROCLOR 1254, Method: STANDARD PLATE): inactive; negative
- mutagenic call (Test System: AMES SALMONELLA TYPHIMURIUM, Strain/Indicator: TA1535, Metabolic Activation: HAMSTER, LIVER, HOMOGENATE (HEAT-INACTIVATED), Method: PREINCUBATION): inactive; negative
- mutagenic call (Test System: AMES SALMONELLA TYPHIMURIUM, Strain/Indicator: TA1535, Metabolic Activation: HAMSTER, LIVER, HOMOGENATE, Method: PREINCUBATION): active; positive
- mutagenic call (Test System: AMES SALMONELLA TYPHIMURIUM, Strain/Indicator: TA1535, Metabolic Activation: MOUSE, LIVER, HOMOGENATE, Method: PREINCUBATION): active; positive
- mutagenic call (Test System: AMES SALMONELLA TYPHIMURIUM, Strain/Indicator: TA1535, Metabolic Activation: MOUSE, LIVER, POSTMITOCHONDRIAL SUPERNATANT, Method: PREINCUBATION): inactive; negative
- mutagenic call (Test System: AMES SALMONELLA TYPHIMURIUM, Strain/Indicator: TA1535, Metabolic Activation: MOUSE, LIVER, S-9, Method: PREINCUBATION): inactive; negative
- mutagenic call [5]: active; positive
- mutagenic call (Test System: AMES SALMONELLA TYPHIMURIUM, Strain/Indicator: TA1535, Metabolic Activation: RAT, LIVER, HOMOGENATE, Method: PREINCUBATION): active; positive

Compound: CNS(=O)(=O)c1ccc(NC(C)=O)cc1
- mutagenic call [2]: inactive; negative
- mutagenic call (Test System: AMES SALMONELLA TYPHIMURIUM, Strain/Indicator: TA98, Metabolic Activation: RAT, LIVER, S-9, AROCLOR 1254, Method: PREINCUBATION): inactive; negative
- mutagenic call [3]: inactive; negative
- mutagenic call (Test System: AMES SALMONELLA TYPHIMURIUM, Strain/Indicator: TA100, Metabolic Activation: RAT, LIVER, S-9, AROCLOR 1254, Method: PREINCUBATION): inactive; negative

Compound: O=S=O
- mutagenic call (End Point: IN VIVO CHROMOSOMAL ABERRATIONS, Test System: BONE MARROW CELLS, Species: MOUSE, Strain/Sex: KUNMING/MALE, FEMALE, Route: INHALATION): active; positive; exposure up to 5 d not effective

Compound: O[C@@H]1[C@@H]2O[C@@H]2c2c(ccc3cc4c(ccc5ccccc54)nc23)[C@H]1O
- mutagenic call [2]: active; positive
- mutagenic call [3]: active; positive
- mutagenic call (Test System: CHINESE HAMSTER V-79, Strain/Indicator: V-79/8-AZAGUANINE, Metabolic Activation: NONE): active; positive

Compound: CCCCCCCCCCCCOC[N+](C)(C)Cc1ccccc1
- mutagenic call (Test System: BACILLUS SUBTILIS, Strain/Indicator: H17/REC, Metabolic Activation: NONE, Method: STANDARD PLATE): inactive; negative
- mutagenic call (Test System: BACILLUS SUBTILIS, Strain/Indicator: M45, Metabolic Activation: NONE, Method: STANDARD PLATE): inactive; negative

Compound: Oc1cccc2ncccc12
- mutagenic call [2]: inactive; negative
- mutagenic call (Test System: AMES SALMONELLA TYPHIMURIUM, Strain/Indicator: TA98, Metabolic Activation: RAT, LIVER, S-9, Method: PREINCUBATION): active; positive
- mutagenic call [3]: inactive; negative
- mutagenic call [4]: inactive; negative
- mutagenic call (Test System: AMES SALMONELLA TYPHIMURIUM, Strain/Indicator: TA100, Metabolic Activation: RAT, LIVER, S-9, AROCLOR 1254 (10% OR 20%), Method: STANDARD PLATE): active; positive
- mutagenic call (Test System: AMES SALMONELLA TYPHIMURIUM, Strain/Indicator: TA100, Metabolic Activation: RAT, LIVER, S-9, Method: PREINCUBATION): active; positive

Compound: CC(=O)OCc1cc(C(C)=O)ccc1OC(C)=O
- mutagenic call (Test System: AMES SALMONELLA TYPHIMURIUM, Strain/Indicator: TA100(PKM101), Metabolic Activation: NONE, Method: STANDARD PLATE): active; positive
- mutagenic call [4]: active; positive
- mutagenic call [5]: inactive; negative
- mutagenic call [1]: inactive; negative
- mutagenic call (Test System: E. COLI, Strain/Indicator: TK701(PKM101), Metabolic Activation: NONE, Method: STANDARD PLATE): active; positive
- mutagenic call (Test System: E. COLI, Strain/Indicator: TK701, Metabolic Activation: NONE, Method: STANDARD PLATE): active; positive
- mutagenic call (Test System: E. COLI, Strain/Indicator: TK702(PKM101), Metabolic Activation: NONE, Method: STANDARD PLATE): active; positive
- mutagenic call (Test System: E. COLI, Strain/Indicator: TK702, Metabolic Activation: NONE, Method: STANDARD PLATE): inactive; negative
